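Interpolation was linear, between the two tested concentrations surrounding the appropriate level; five concentrations were tested over 48 hours in 96-well plates. Here, GI50 denotes the concentration required for 50% inhibition of growth.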 Calls of active or inactive are those of the source. No stated cut-off is given here; in the data, active = GI50 up to about 1.1 µM and inactive = higher.
Tests used:
Assay in all cases: NCI-60 cell line screen, 48 h
[1] = system: Malme-3M
[2] = system: HCT-116
[3] = system: UACC-62
[4] = system: KM12
[5] = system: SN12C
[6] = system: HCC 2998
[7] = system: XF498
[8] = system: UO-31
[9] = system: ACHN
[10] = system: RXF 393
[11] = system: LOX IMVI
[12] = system: SNB-75
[13] = system: SNB-19
[14] = system: HOP-62
[15] = system: SK-MEL-2
[16] = system: SK-MEL-28
[17] = system: NCI-H226
[18] = system: OVCAR-3
[19] = system: NCI-H460
[20] = system: OVCAR-4
[21] = system: DLD-1
[22] = system: OVCAR-5
[23] = system: U-251
[24] = system: M19-MEL
[25] = system: SF-268
[26] = system: LXFL 529
[27] = system: HCT-15
[28] = system: UACC-257
[29] = system: NCI-H23
[30] = system: TK-10
[31] = system: SNB-78
[32] = system: EKVX
[33] = system: M14
[34] = system: SK-OV-3
[35] = system: SF-539
[36] = system: DMS-114
[37] = system: HT-29
[38] = system: KM-20L2
[39] = system: SW-620
[40] = system: A498
[41] = system: DMS-273
[42] = system: COLO 205
[43] = system: SF-295
[44] = system: HL-60
[45] = system: 786-0
[46] = system: OVCAR-8
[47] = system: NCI-H522
[48] = system: RPMI-8226
[49] = system: CCRF-CEM
[50] = system: CAKI-1
[51] = system: A549
[52] = system: K562
[53] = system: SR
[54] = system: MOLT-4
[55] = system: SK-MEL-5
[56] = system: IGROV-1

## CC(C)C(C)C(C)(C)P(C)(C)=O (configuration not stated)
[1]
  GI50: > 100 µM (inactive)
[2]
  GI50: > 100 µM (inactive)
[3]
  GI50: > 100 µM (inactive)
[4]
  GI50: > 100 µM (inactive)
[5]
  GI50: > 100 µM (inactive)
[6]
  GI50: > 100 µM (inactive)
[7]
  GI50: > 100 µM (inactive)
[8]
  GI50: > 100 µM (inactive)
[9]
  GI50: > 100 µM (inactive)
[10]
  GI50: > 100 µM (inactive)
[11]
  GI50: > 100 µM (inactive)
[12]
  GI50: > 100 µM (inactive)
[13]
  GI50: > 100 µM (inactive)
[14]
  GI50: > 100 µM (inactive)
[15]
  GI50: > 100 µM (inactive)
[16]
  GI50: > 100 µM (inactive)
[17]
  GI50: > 100 µM (inactive)
[18]
  GI50: > 100 µM (inactive)
[19]
  GI50: > 100 µM (inactive)
[20]
  GI50: > 100 µM (inactive)
[21]
  GI50: > 100 µM (inactive)
[22]
  GI50: > 100 µM (inactive)
[23]
  GI50: > 100 µM (inactive)
[24]
  GI50: > 100 µM (inactive)
[25]
  GI50: > 100 µM (inactive)
[26]
  GI50: > 100 µM (inactive)
[27]
  GI50: > 100 µM
[28]
  GI50: > 100 µM (inactive)
[29]
  GI50: > 100 µM (inactive)
[30]
  GI50: > 100 µM (inactive)
[31]
  GI50: > 100 µM (inactive)
[32]
  GI50: > 100 µM (inactive)
[33]
  GI50: > 100 µM (inactive)
[34]
  GI50: > 100 µM (inactive)
[35]
  GI50: > 100 µM (inactive)
[36]
  GI50: > 100 µM (inactive)
[37]
  GI50: > 100 µM (inactive)
[38]
  GI50: > 100 µM (inactive)

## COC(=O)CCSC(=O)Nc1ccccc1Cl
[2]
  GI50: > 100 µM (inactive)
[3]
  GI50: > 100 µM (inactive)
[4]
  GI50: > 100 µM (inactive)
[5]
  GI50: > 100 µM (inactive)
[39]
  GI50: > 100 µM (inactive)
[40]
  GI50: > 100 µM (inactive)
[41]
  GI50: > 100 µM (inactive)
[6]
  GI50: > 100 µM (inactive)
[8]
  GI50: > 100 µM (inactive)
[9]
  GI50: > 100 µM (inactive)
[11]
  GI50: > 100 µM (inactive)
[42]
  GI50: > 100 µM (inactive)
[12]
  GI50: > 100 µM (inactive)
[13]
  GI50: > 100 µM (inactive)
[14]
  GI50: > 100 µM (inactive)
[15]
  GI50: > 100 µM (inactive)
[16]
  GI50: > 100 µM (inactive)
[43]
  GI50: > 100 µM (inactive)
[17]
  GI50: > 100 µM (inactive)
[18]
  GI50: > 100 µM (inactive)
[44]
  GI50: 63.1 µM (inactive)
[19]
  GI50: > 100 µM (inactive)
[45]
  GI50: > 100 µM (inactive)
[46]
  GI50: > 100 µM (inactive)
[20]
  GI50: > 100 µM (inactive)
[21]
  GI50: > 100 µM (inactive)
[47]
  GI50: 1.36 µM (inactive)
[22]
  GI50: > 100 µM (inactive)
[23]
  GI50: > 100 µM (inactive)
[25]
  GI50: > 100 µM (inactive)
[26]
  GI50: > 100 µM (inactive)
[48]
  GI50: > 100 µM (inactive)
[49]
  GI50: 58.1 µM (inactive)
[50]
  GI50: > 100 µM (inactive)
[27]
  GI50: > 100 µM
[28]
  GI50: > 100 µM (inactive)
[29]
  GI50: > 100 µM (inactive)
[51]
  GI50: > 100 µM (inactive)
[30]
  GI50: > 100 µM (inactive)
[52]
  GI50: > 100 µM (inactive)
[53]
  GI50: > 100 µM (inactive)
[31]
  GI50: > 100 µM (inactive)
[32]
  GI50: > 100 µM (inactive)
[33]
  GI50: > 100 µM (inactive)
[54]
  GI50: > 100 µM (inactive)
[35]
  GI50: > 100 µM (inactive)
[36]
  GI50: > 100 µM (inactive)
[37]
  GI50: > 100 µM (inactive)
[38]
  GI50: > 100 µM (inactive)

## COC1(C)C(=O)N2C1N(C(=O)OCc1ccccc1)CC2(C)C (configuration not stated)
[55]
  GI50: > 100 µM (inactive)
[1]
  GI50: > 100 µM (inactive)
[2]
  GI50: > 100 µM (inactive)
[3]
  GI50: > 100 µM (inactive)
[5]
  GI50: > 100 µM (inactive)
[39]
  GI50: > 100 µM (inactive)
[40]
  GI50: > 100 µM (inactive)
[41]
  GI50: > 100 µM (inactive)
[6]
  GI50: > 100 µM (inactive)
[7]
  GI50: > 100 µM (inactive)
[8]
  GI50: > 100 µM (inactive)
[9]
  GI50: > 100 µM (inactive)
[10]
  GI50: > 100 µM (inactive)
[11]
  GI50: > 100 µM (inactive)
[42]
  GI50: > 100 µM (inactive)
[12]
  GI50: 44.9 µM (inactive)
[13]
  GI50: > 100 µM (inactive)
[14]
  GI50: > 100 µM (inactive)
[15]
  GI50: > 100 µM (inactive)
[16]
  GI50: > 100 µM (inactive)
[43]
  GI50: > 100 µM (inactive)
[17]
  GI50: > 100 µM (inactive)
[18]
  GI50: > 100 µM (inactive)
[44]
  GI50: > 100 µM (inactive)
[19]
  GI50: > 100 µM (inactive)
[45]
  GI50: > 100 µM (inactive)
[46]
  GI50: > 100 µM (inactive)
[20]
  GI50: > 100 µM (inactive)
[21]
  GI50: > 100 µM (inactive)
[23]
  GI50: > 100 µM (inactive)
[24]
  GI50: > 100 µM (inactive)
[25]
  GI50: > 100 µM (inactive)
[26]
  GI50: > 100 µM (inactive)
[48]
  GI50: > 100 µM (inactive)
[49]
  GI50: > 100 µM (inactive)
[56]
  GI50: > 100 µM (inactive)
[27]
  GI50: > 100 µM
[28]
  GI50: > 100 µM (inactive)
[29]
  GI50: > 100 µM (inactive)
[51]
  GI50: > 100 µM (inactive)
[30]
  GI50: > 100 µM (inactive)
[52]
  GI50: > 100 µM (inactive)
[53]
  GI50: > 100 µM (inactive)
[32]
  GI50: > 100 µM (inactive)
[33]
  GI50: > 100 µM (inactive)
[54]
  GI50: > 100 µM (inactive)
[35]
  GI50: > 100 µM (inactive)
[36]
  GI50: > 100 µM (inactive)
[37]
  GI50: > 100 µM (inactive)
[38]
  GI50: > 100 µM (inactive)
